Consider 3 molecules from ChEMBL document CHEMBL1126409, “Synthesis and biological activity of nor- and homo-5,10-dideazatetrahydrofolic acid” (Bioorg Med Chem Lett, 1992).

By IC50 is commonly meant the point on the concentration scale where inhibition reaches its midpoint. Broadly, the Ki is the dissociation constant of the complex between target and ligand, obtained from inhibition or displacement.

One assay concerns CCRF-CEM. Briefly: The compound was tested for its cytotoxicity against CCRF-CEM human leukemic cells using 72 hrs assay. Format: functional, cell-based.
Assay [1] addresses T1, Trifunctional purine biosynthetic protein adenosine-3 (Mus musculus, UniProt Q64737).
T1 sequence (Q64737 whole entry): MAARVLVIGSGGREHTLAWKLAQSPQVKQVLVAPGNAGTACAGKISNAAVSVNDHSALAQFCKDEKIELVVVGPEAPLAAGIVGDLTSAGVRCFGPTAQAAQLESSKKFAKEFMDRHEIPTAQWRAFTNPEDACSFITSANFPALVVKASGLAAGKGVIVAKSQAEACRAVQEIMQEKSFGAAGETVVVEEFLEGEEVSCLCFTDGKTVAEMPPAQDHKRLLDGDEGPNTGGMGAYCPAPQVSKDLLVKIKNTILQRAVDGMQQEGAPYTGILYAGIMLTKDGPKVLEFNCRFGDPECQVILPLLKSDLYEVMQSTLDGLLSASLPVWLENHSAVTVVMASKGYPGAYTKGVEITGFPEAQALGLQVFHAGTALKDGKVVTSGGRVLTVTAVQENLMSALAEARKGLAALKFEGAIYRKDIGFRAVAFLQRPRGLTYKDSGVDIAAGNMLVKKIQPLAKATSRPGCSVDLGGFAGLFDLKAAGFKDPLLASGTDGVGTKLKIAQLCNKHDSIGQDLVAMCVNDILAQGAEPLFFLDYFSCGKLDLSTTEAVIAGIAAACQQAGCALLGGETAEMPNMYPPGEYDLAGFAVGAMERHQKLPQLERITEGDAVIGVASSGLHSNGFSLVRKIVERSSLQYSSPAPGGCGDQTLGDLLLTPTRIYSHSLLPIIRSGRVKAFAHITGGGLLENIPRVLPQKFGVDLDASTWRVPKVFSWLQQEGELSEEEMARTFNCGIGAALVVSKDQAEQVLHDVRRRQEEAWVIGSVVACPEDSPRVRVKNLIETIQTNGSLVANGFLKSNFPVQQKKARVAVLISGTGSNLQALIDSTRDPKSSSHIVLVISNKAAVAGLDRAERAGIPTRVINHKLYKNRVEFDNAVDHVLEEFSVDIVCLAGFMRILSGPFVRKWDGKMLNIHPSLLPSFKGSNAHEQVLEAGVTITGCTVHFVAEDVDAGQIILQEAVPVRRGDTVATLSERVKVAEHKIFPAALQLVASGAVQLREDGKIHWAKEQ
Briefly: Inhibitory activity against glycinamide ribonucleotide formyltransferase (GARFT) from L1210 murine leukemic cells. Format: cell-based.

Values after ≈ are worked out from the molar mass of the structure shown.

Consider `Nc1nc(O)c2c(n1)NCC(CCCc1ccc(C(=O)N[C@H](CCC(=O)O)C(=O)O)cc1)C2` (stereo not given in full), for which the IC50 in the assay with CCRF-CEM worked out at 8 ng/mL (≈ 0.0175 µM). `Nc1nc(O)c2c(n1)NCC(Cc1ccc(C(=O)N[C@H](CCC(=O)O)C(=O)O)cc1)C2` (stereo not given in full): 26 ng/mL (≈ 0.0605 µM) corresponded to half-maximal inhibition in the assay with CCRF-CEM (IC50). The Ki in assay [1] was determined as 0.00063 nM.

In the assay with CCRF-CEM, `Nc1nc2c(c(=O)[nH]1)C[C@@H](CCc1ccc(C(=O)N[C@@H](CCC(=O)O)C(=O)O)cc1)CN2` [LOMETREXOL] yielded an IC50 of 7 ng/mL (≈ 0.0158 µM). The molecule further registered a Ki in assay [1] of 120 nM.
